Measurements taken from patent US20230210984A1, “ADOPTIVE IMMUNOTHERAPY” (The Council of the Queensland Institute of Medical Research, priority 2019, published 2023).

Legend:
[1] = test system: EBV-associated cell lines (nasopharyngeal and gastric cancer cell lines); test: MTS cell viability assay, IC50 of inhibitors; assay type: cell-based
Experimental: FIG. 9: Determining the IC50 value of MEK1/2 inhibitors. Representation of the cell viability performed using MTS assay after the indicated cell lines were incubated with 0.1 μM-5 μM of selumatinib (left panel) and trametinib (right panel) for 48 hours. The data are represented as the mean±SD from three independent experiments.
FIG. 14: Determining the IC50 value of JQ1 inhibitors. Representation of the cell viability performed using MTS assay after the indicated cell lines were incubated with 0.5 μM-10 μM of JQ1 for 48 hours. The data are represented as the mean±SD from three independent experiments.
Cell viability assay was performed using the CellTiter 96® AQueous one cell viability assay reagent (Promega, WI, USA) for three biological replicates per EBV-associated cancer cell lines in triplicate. Briefly, the cancer cells (target cells) were plated at a density of 5000 cells per well in an overall media volume of 200 μL on a 96-well tissue-culture plate (BD Falcon™). The effector AdE1-LMPpoly transfected T cells were freshly thawed in RPMI-1640 with 10% FCS and 120 IU/mL of recombinant IL-2 at 37° C. and […]. Post 24 hrs of plating and incubation at 37° C. and […], the effector T cells were mixed to the target cells at a gradient ratio of effector to target (E:T) of 5:1-100:1. The exact number of T cells (To) used per E:T ratio (ET) was independently used as control alongside PBS treated target cells (Es) and sole media (M0). After 24 hrs of incubation at 37° C. and […], MTS was added to each well (1:100 dilution in media) and was incubated for 1 hour following which the plate was centrifuged at 1,200×g at room temperature for 5 min and absorbance of the mixture at an optical density of 490 nm was measured via a microplate reader. The relative cell viability was calculated using the following formula: […]
To determine the upregulation of MAPK pathway in EBV-associated solid cancers, we first identified the IC50 value of MEK1/2 inhibitors (AZD6244 or selumetanib and trematinib) across nasopharyngeal and gastric cancer cell lines (with drug concertation ranging from 0.1 μM-5 μM). […] In the next set of experiments, we wanted to determine the impact of MEK1/2 inhibition in combination with allogeneic EBV-specific T cells on EBV-associated solid cancers. As such, we treated the respective EBV-associated cell lines (both gastric and nasopharyngeal) individually or in combination with MEK1/2 inhibitors (both selumetanib and trematinib) and EBV-specific T cells.
Similarly, we targeted MYC-dependent cancer intrinsic pathway using JQ1 inhibitor by first determining the IC50 value of the inhibitor across nasopharyngeal and gastric cancer cell lines (with drug concertation ranging from 0.5 μM-10 μM). […] To characterized the impact of JQ1 inhibition in combination with allogeneic EBV-specific T cells on EBV-associated cancer cells, we used IC25 value JQ1 (2.5 μM) alongside an effector to target ratio of 25:1 of the respective HLA matched allogeneic EBV-specific T cells in vitro. […] We also performed phenotypic characterization, using flow cytometry, of SNU719 and C666.1 cells after 16 hours of individual and dual treatment in vitro.

[2] = test system: SNU719 gastric cancer xenograft; test: SNU719 xenograft, anti-PD1 and allogenic EBV-specific T cells in vivo; design: species or system NOD/SCID mice
Description: FIG. 6: Impact of PD1 inhibition on therapeutic efficacy of allogeneic EBV-specific cytotoxic T cells in vivo. (A) Heat-map representing gene signature of 326 genes observed RNA isolated from in the tumour infiltrating (TILs) CD8+ cells performed using NanoString Immune function panel. The TILS were isolated from SNU719 derived tumour xenograft from six independent mice (LT5-10) after 5 days post a single dose of TI_001 treatment when the tumour size reached 40 mm^2. The gene expression observed in TILS was compared to unstimulated (LT11) and EBV-pepmix stimulated (LT12). (B) Statistical representation comparing the (i) percentage of CD3+CD8+ population; (ii) percentage of CD8+PD1+ population; (iii) percentage of CD8+LAG3+ population; and (iv) percentage of CD8+ TIM3+ population of viable TILS (described in (A)) and compared to unstimulated T cells (T cell therapy). Error bars represent the ±SEM from three independent experiments. P-values were calculated using one-way ANOVA. Statistical representation of SNU719 derived xenograft indicating (C) tumour growth; (D) tumour weight (in gms) at ethical limit of tumour growth; (E) percent survival post T cell, anti-PD1 and combination of T cell and anti-PD1 therapy observed in respective treatment groups compared to mock (PBS) treated control group. The statistical significance of data of tumour weight was analysed by one-way ANOVA. The mice survival was monitored over the indicated period of time and the statistical significance of data was analysed by log-rank test: ns not significant, **p<0.01, ***p<0.001, and ****p<0.0001.
A total of 12-24 female NOD/SCID mice (depending on the experiment) of 7-8 weeks old were used in this study. The mice were subjected to irradiation with 0.8 Gy cobalt-60 and after 4 hours, were subcutaneously injected with 5×10^6 cells of respective EBV-associated cancer cells with a 29-gauge needle. The mice were monitored for tumour growth, weight and body score thrice weekly. Once the tumour was palpable, the mice were randomised into respective groups and were treated with respective dosage of PBS or 20×10^6 tumour HLA matched allogenic EBV-specific T-cells. The tumour size in these mice were measured thrice weekly using the Vernier Calipers. To calculate tumour area the following formula was used: tumour area=B*S where B=largest tumour measurement and S=the smallest, based on two-dimensional caliper measurements as previously described.
Based on these observations, we hypothesized that a combination of checkpoint inhibitor and T cell therapy may offer better therapeutic benefit against EBV-associated tumours.

Row | Molecule | IC50 ([1]; 48 h, read-out: IC50 (~50% reduction in cell viability)) | IC25 value (sub IC50 value) ([1]; concentration chosen for in vitro combination treatment) | SNU719 gastric cancer outgrowth ([2]; Nivolumab 24 hrs after T cell infusion, combination vs monotherapy and mock-treated groups, p<0.0001) | tumour size (tumour weight) ([2]; combination with T cells vs monotherapy groups) | survival post therapy ([2]; combination with T cells vs monotherapy or mock-treated group, p<0.0001) | better survival in comparison to only T cell treated group ([2]; combination with T cells, p<0.01)
1 | CC(=O)Nc1cccc(-n2c(=O)n(C3CC3)c(=O)c3c(Nc4ccc(I)cc4F)n(C)c(=O)c(C)c32)c1 [trematinib] | ~2500 nM | 1000 nM |  |  |  | 
2 | Nivolumab: anti-PD1 antibody |  |  | significantly reduced | significantly reduced tumour size | significantly improved | ~2 fold
